Data on 17 compounds can be found in patent US12479846B2, “EZH2 inhibitor and use thereof” (PHARMABLOCK SCIENCES (NANJING) , INC., priority 2019, dated 2025).

For one experiment, the target named is T1, Wild-type PRC2/EZH2 (Homo sapiens, UniProt Q15910).
T1 construct: purchased Reaction Biology (Malvern, PA); host or cells: insect cell/baculovirus expression system
Kind of experiment: PRC2/EZH2 HTRF enzyme inhibition test. It counts as biochemical. Particulars: human recombinant PRC2 complex, 30 μM SAM, 10 μM biotin-H3 (21-44) peptide. On the technique in general: TR-FRET usually uses a lanthanide donor and a delayed reading to cut background.

The next experiment deals with WSUDLCL-2 cells. Kind of experiment: Cell proliferation inhibition test (CCK8), WSUDLCL-2. It counts as cell-based. Particulars: Homo sapiens, WSUDLCL2, 288 h; B-cell non-Hodgkin's lymphoma cell line, 12 days incubation, CCK8 cell viability. From the text: (§1) Cell Proliferation Inhibition Test
(§2) Karpass 422 and WSUDLCL-2 cells were purchased from the European Collection of Authenticated Cell Cultures (ECACC) and the German Collection of Microorganisms and Cell Cultures (Deutsche Sammlung von Mikroorganismen und Zellkulturen, DSMZ). RMBI 1640 medium, penicillin-streptomycin, heat-inactivated fetal bovine senum (FBS), and horse serum were purchased from ThermoFisher (Waltham MA, USA). Corning 96-well cell culture plate was purchased from ThermoFisher (Waltham MA, USA).
(§3) To evaluate the inhibitory effect of the synthesized compounds on the proliferation of B-cell non-Hodgkin's lymphoma Karpass 422 and WSUDLCL-2 cells, exponentially growing cells were inoculated in RMPI1640 medium containing 20% and 10% horse serum and 1% penicillin-streptomycin at concentrations of 2000 cells/ml and 3000 cells/ml, respectively, in 96-well plates, 100 μL per well, and incubated overnight in an incubator at 37° C. and 5% CO2. The compound was prepared in DMSO into a 10-point, 3-fold series diluent, starting at 6 mM. 1 μL of DMSO solution from a compound reserve plate was added to 99 μL of cell culture medium (the final maximum concentration of the compound in the assay was 30 μM and the final concentration of DMSO was 0.5%). 100 μL of compound solution from the medium was added to each well of the Karpass422 cell plate. After the addition of the compound solution, the assay plate was incubated at 37° C. and 5% CO2 for 12 days. During the incubation, the cell culture medium was replaced with the cell culture medium having the newly dissolved test compound every 4 days. After 100 μL of the old medium was removed from the cell plate, 100 μL of medium having dissolved test compound was added to the assay plate, which was prepared by adding 1 μL of compound DMSO series solution to 199 μL of cell medium with the same layout as the original preparation layout. Cell viability was measured by using cell count kit-8 (CCK8) purchased from Beyotime Biotechnology (Shanghai, China). 20 μL of CCK8 reagent was added to each well of the assay plate and incubated at 37° C. for 2 hours. The O.D. at 450 nm was read by using a FlexStation 3 microplate reader (Molecular Devices, Sunnyvale, CA 94089 USA).

Another experiment has as its system Karpas422 cells. Kind of experiment: Cell proliferation inhibition test (CCK8), Karpas422. The experiment is classed as cell-based. Particulars: Homo sapiens, KARPAS-422, 288 h; B-cell non-Hodgkin's lymphoma cell line, 12 days incubation, CCK8 cell viability.
From the text: as §1, §2, §3

T1 sequence (Q15910 whole entry): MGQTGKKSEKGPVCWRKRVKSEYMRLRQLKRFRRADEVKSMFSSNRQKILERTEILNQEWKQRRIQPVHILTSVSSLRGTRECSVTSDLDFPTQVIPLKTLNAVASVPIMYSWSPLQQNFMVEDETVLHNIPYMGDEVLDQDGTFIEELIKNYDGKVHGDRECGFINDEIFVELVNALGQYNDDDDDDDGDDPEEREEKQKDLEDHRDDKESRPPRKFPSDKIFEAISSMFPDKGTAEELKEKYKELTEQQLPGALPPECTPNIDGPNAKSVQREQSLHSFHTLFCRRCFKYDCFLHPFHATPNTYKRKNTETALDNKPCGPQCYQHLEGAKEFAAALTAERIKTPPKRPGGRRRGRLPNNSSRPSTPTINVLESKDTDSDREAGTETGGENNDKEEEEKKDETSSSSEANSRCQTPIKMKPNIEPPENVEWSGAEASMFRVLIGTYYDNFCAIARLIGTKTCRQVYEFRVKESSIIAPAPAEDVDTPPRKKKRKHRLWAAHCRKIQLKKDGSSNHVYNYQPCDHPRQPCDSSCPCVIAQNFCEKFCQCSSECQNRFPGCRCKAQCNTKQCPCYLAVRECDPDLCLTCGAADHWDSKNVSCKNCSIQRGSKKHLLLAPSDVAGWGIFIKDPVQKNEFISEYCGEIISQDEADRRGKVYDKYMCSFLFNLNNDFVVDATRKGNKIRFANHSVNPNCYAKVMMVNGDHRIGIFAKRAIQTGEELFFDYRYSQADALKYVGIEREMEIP
T1 sequence (Q6ZN18 whole entry partner): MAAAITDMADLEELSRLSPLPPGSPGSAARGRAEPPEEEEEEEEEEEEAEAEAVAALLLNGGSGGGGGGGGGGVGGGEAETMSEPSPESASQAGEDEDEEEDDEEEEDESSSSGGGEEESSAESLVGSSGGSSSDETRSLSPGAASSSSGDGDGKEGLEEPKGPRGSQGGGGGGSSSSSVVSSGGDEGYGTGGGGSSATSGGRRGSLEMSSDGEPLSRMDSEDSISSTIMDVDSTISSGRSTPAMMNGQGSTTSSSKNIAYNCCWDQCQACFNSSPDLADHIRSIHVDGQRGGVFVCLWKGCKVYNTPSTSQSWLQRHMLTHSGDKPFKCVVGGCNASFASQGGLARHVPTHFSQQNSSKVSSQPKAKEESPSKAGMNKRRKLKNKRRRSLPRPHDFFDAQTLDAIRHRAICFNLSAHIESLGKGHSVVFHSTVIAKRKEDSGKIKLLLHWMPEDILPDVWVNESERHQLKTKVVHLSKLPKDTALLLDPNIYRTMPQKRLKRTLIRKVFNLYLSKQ
T1 sequence (O75530 whole entry partner): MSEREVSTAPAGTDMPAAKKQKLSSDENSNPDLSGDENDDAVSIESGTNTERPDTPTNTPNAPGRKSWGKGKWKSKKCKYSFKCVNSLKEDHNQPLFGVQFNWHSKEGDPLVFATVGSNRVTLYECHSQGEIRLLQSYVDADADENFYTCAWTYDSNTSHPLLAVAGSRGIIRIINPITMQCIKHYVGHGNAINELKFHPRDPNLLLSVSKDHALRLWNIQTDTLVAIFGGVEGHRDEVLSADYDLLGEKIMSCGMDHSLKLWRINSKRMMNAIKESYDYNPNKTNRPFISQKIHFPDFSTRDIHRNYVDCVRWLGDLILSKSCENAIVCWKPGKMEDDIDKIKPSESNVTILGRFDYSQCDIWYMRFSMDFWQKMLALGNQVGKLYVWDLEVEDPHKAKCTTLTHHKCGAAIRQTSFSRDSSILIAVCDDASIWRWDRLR
T1 sequence (Q09028 whole entry partner): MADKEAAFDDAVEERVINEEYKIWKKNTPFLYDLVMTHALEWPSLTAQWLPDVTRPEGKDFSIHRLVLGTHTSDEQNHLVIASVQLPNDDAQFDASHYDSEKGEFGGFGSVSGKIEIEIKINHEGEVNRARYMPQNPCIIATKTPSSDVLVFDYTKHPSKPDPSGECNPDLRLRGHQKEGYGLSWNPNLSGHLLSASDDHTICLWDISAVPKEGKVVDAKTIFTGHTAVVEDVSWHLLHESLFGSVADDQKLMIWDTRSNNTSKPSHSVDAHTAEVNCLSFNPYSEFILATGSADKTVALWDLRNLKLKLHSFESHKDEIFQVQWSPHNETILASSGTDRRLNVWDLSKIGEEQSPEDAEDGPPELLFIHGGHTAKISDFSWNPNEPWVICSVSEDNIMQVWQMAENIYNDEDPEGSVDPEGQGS
T1 sequence (Q15022 whole entry partner): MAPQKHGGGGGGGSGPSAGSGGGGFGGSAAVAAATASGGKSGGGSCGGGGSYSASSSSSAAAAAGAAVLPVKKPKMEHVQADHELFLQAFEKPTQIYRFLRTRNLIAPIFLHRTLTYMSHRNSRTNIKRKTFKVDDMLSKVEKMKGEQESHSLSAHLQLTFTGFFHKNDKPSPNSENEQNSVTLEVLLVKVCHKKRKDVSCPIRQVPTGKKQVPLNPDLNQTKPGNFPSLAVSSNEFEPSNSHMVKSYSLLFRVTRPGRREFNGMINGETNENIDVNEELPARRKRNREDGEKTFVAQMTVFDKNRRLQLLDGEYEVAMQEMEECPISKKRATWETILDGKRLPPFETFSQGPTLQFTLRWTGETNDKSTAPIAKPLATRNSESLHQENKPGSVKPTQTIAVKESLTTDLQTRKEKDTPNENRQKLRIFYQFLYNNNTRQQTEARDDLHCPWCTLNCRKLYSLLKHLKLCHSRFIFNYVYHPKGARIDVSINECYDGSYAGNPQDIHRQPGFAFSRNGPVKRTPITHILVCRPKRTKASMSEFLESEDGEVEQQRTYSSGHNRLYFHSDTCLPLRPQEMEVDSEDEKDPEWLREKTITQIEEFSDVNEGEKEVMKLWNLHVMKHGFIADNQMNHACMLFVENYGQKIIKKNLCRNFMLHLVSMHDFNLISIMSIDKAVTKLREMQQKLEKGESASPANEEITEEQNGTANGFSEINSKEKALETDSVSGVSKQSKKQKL
From the text for Wild-type PRC2/EZH2: The human recombinant PRC2 complex was composed of human recombinant EZH2, AEBP2, EED, RbAp48, and SUZ12, co-expressed in an insect cell/baculovirus expression system, and purchased from Reaction Biology (Malvern, PA). […] The HTRF detection kit including monoclonal antibody histone H3K27Mel-Eu (K) fluorescent donor and streptavidin labeled XL665 fluorescent receptor was purchased from Cisbio (Shanghai, China). S-adenosylmethionine (SAM), Tween 20, dimethyl sulfoxide (DMSO), and Tris buffer at the highest purity level were purchased from Sigma.
The experiment was carried out in a buffer consisting of 50 mM Tris, pH 9.0, 0.1% BSA, and 0.01% Tween 20, and 1 mM DTT was added before the experiment started. 2.5 μL of a solution of a compound in 4% DMSO and 5 μL of PRC2/SAM mixed solution pre-incubated for 30 minutes were added to the buffer, and then the buffer was added to a white low-volume 384-well microtiter plate. The mixture solution was gently shaken and incubated at room temperature for 15 minutes. 2.5 μL of biotin-H3 (21-44) peptide substrate solution was added to the buffer to initiate the methyl transfer reaction. The final concentrations of PRC2, SAM, biotin-H3 peptide substrate, and DMSO were 2 ng/L, 30 μM, 10 μM, and 1%, respectively. The reaction was gently shaken at room temperature away from light for 120 minutes, and then 10 μL of monoclonal antibody histone H3K27Mel-Eu (K) fluorescent donor and streptavidin-labeled XL665 fluorescent receptor in the detection buffer from the manufacturer were added to the reaction mixture for incubation for 60 minutes. The final concentrations of these two reagents were 50 ng/ml and 62.5 nM, respectively. The plate was read on an Envision multi-template reader from PerkinElmer (Waltham MA USA) with an excitation wavelength of 320 nm and emission wavelengths of 665 and 615 nm. The IC50 value of the inhibitor was obtained by fitting an S-shaped dose-response curve (variable slope, four parameters) of fluorescence intensities at 665 nm and 615 nm over inhibitor concentrations by using Prism 7 (La Jolla, CA).

The IC50 is the point on the concentration scale where inhibition reaches its midpoint. `COc1cc(C)[nH]c(=O)c1CN1CCn2ccc3cc([C@@H](OC)C4COC4)c(Cl)c(c32)C1=O` [Compound 11, (S)-10-chloro-9-(methoxy(oxetan-3-yl)methyl)-2-((4-methoxy-6-methyl-2-oxo-1,2-dihydropyridin-3-yl)methyl)-3,4-dihydro-[1,4]diazepino[6,7,1-HI]indol-1(2H)-one]: the IC50 at Wild-type PRC2/EZH2 amounted to 557 nM; with WSUDLCL-2 cells it was 104 nM; with Karpas422 cells, 934 nM.

For the compound `COc1cc(C)[nH]c(=O)c1CN1CCN2CCc3cc(-c4c(C)noc4C)c(Cl)c(c32)C1=O` [Compound 3, 10-chloro-9-(3,5-dimethylisoxazol-4-yl)-2-((4-methoxy-6-methyl-2-oxo-1,2-dihydropyridin-3-yl)methyl)-3,4,6,7-tetrahydro-[1,4]diazepino[6,7,1-HI]indol-1(2H)-one], the IC50 on Wild-type PRC2/EZH2 came to 19.9 nM.

As to `COc1cc(C)[nH]c(=O)c1CN1CCn2ccc3cc(-c4c(C)nn(C)c4C)c(Cl)c(c32)C1=O` [Compound 4, 10-chloro-2-((4-methoxy-6-methyl-2-oxo-1,2-dihydropyridin-3-yl)methyl)-9-(1,3,5-trimethyl-1H-pyrazol-4-yl)-3,4-dihydro-[1,4]diazepino[6,7,1-HI]indol-1(2H)-one], on Wild-type PRC2/EZH2, the half-inhibitory concentration (IC50) was determined as 2530 nM.

With `COc1cc(C)[nH]c(=O)c1CN1CCn2ccc3cc(C(OC)C4COC4)c(Cl)c(c32)C1=O` (stereo not shown) [Compound 9, 10-chloro-9-(methoxy(oxetan-3-yl)methyl)-2-((4-methoxy-6-methyl-2-oxo-1,2-dihydropyridin-3-yl)methyl)-3,4-dihydro-[1,4]diazepino[6,7,1-HI]indol-1(2H)-one], the IC50 at Wild-type PRC2/EZH2 was 21.5 nM.

In the case of `COc1cc(C)[nH]c(=O)c1CN1CCn2ccc3cc(-c4c(C)noc4C)c(C)c(c32)C1=O` [Compound 15, 9-(3,5-dimethylisoxazol-4-yl)-2-((4-methoxy-6-methyl-2-oxo-1,2-dihydropyridin-3-yl)methyl)-10-methyl-3,4-dihydro-[1,4]diazepino[6,7,1-HI]indol-1(2H)-one], the IC50 at Wild-type PRC2/EZH2 was found to be 17.8 nM; in the experiment on WSUDLCL-2 cells, 1.2 nM; in the experiment on Karpas422 cells it was 50.1 nM.

On to `COc1cc(C)[nH]c(=O)c1CN1CCn2ccc3cc(-c4c(C)cnn4C)c(Cl)c(c32)C1=O` [Compound 5, 10-chloro-9-(1,4-dimethyl-1H-pyrazol-5-yl)-2-((4-methoxy-6-methyl-2-oxo-1,2-dihydropyridin-3-yl)methyl)-3,4-dihydro-[1,4]diazepino[6,7,1-HI]indol-1(2H)-one], for which, at Wild-type PRC2/EZH2, the IC50 came out at 253 nM.

As for `COc1cc(C)[nH]c(=O)c1CN1C(=O)c2c(Cl)c(-c3c(C)noc3C)cc3ccn(c23)CC1C` (stereo not shown) [Compound 17, 10-chloro-9-(3,5-dimethylisoxazol-4-yl)-2-((4-methoxy-6-methyl-2-oxo-1,2-dihydropyridin-3-yl)methyl)-3-methyl-3,4-dihydro-[1,4]diazepino[6,7,1-HI]indol-1(2H)-one], the figures for the half-maximal inhibitory concentration (IC50) on Wild-type PRC2/EZH2, with WSUDLCL-2 cells and in the experiment on Karpas422 cells were 14 nM, 1.2 nM and 35 nM, respectively.

Regarding `COc1cc(C)[nH]c(=O)c1CN1CCn2ccc3cc([C@H](OC)C4COC4)c(Cl)c(c32)C1=O` [Compound 10, (R)-10-chloro-9-(methoxy(oxetan-3-yl)methyl)-2-((4-methoxy-6-methyl-2-oxo-1,2-dihydropyridin-3-yl)methyl)-3,4-dihydro-[1,4]diazepino[6,7,1-HI]indol-1(2H)-one], the half-inhibitory concentration (IC50) was 7.2 nM on Wild-type PRC2/EZH2, 2.4 nM in the experiment on WSUDLCL-2 cells and 11.4 nM in the experiment on Karpas422 cells.

`COc1cc(C)[nH]c(=O)c1CN1CCn2ccc3cc(-c4c(C)nn(CC#N)c4C)c(Cl)c(c32)C1=O` [Compound 8, 2-(4-(10-chloro-2-((4-methoxy-6-methyl-2-oxo-1,2-dihydropyridin-3-yl)methyl)-1-oxo-1,2,3,4-tetrahydro-[1,4]diazepino[6,7,1-HI]indol-9-yl)-3,5-dimethyl-1H-pyrazol-1-yl)acetonitrile]: the IC50 on Wild-type PRC2/EZH2 was determined as 1090 nM.

`CCN(c1cc2ccn3c2c(c1Cl)C(=O)N(Cc1c(OC)cc(C)[nH]c1=O)CC3)C1COC1` [Compound 2, 10-chloro-9-(ethyl(oxetan-3-yl)amino)-2-((4-methoxy-6-methyl-2-oxo-1,2-dihydropyridin-3-yl)methyl)-3,4-dihydro-[1,4]diazepino[6,7,1-HI]indol-1(2H)-one]: the IC50 at Wild-type PRC2/EZH2 was determined as 3.8 nM.

For the compound `COc1cc(C)[nH]c(=O)c1CN1CCn2cnc3cc(-c4c(C)noc4C)c(Cl)c(c32)C1=O` [Compound 13, 5-chloro-4-(3,5-dimethylisoxazol-4-yl)-7-((4-methoxy-6-methyl-2-oxo-1,2-dihydropyridin-3-yl)methyl)-8,9-dihydro-2,7,9a-triazabenzo[cd]azulen-6(7H)-one], the IC50 in the experiment on WSUDLCL-2 cells came out at 56.1 nM; in the experiment on Karpas422 cells it was 359 nM.

Consider `COc1cc(C)[nH]c(=O)c1CN1CCn2ncc3cc(-c4c(C)noc4C)c(Cl)c(c32)C1=O` [Compound 12, 5-chloro-4-(3,5-dimethylisoxazol-4-yl)-7-((4-methoxy-6-methyl-2-oxo-1,2-dihydropyridin-3-yl)methyl)-8,9-dihydro-[1,4]diazepino[6,7,1-HI]indazol-6(7H)-one], for which the results for the IC50 in the experiment on WSUDLCL-2 cells and in the experiment with Karpas422 cells were 11 nM and 87.6 nM, respectively.

In the case of `COc1cc(C)[nH]c(=O)c1CN1CCn2ccc3cc(-c4c(C)nn(CCO)c4C)c(Cl)c(c32)C1=O` [Compound 7, 10-chloro-9-(1-(2-hydroxyethyl)-3,5-dimethyl-1H-pyrazol-4-yl)-2-((4-methoxy-6-methyl-2-oxo-1,2-dihydropyridin-3-yl)methyl)-3,4-dihydro-[1,4]diazepino[6,7,1-HI]indol-1(2H)-one], the IC50 at Wild-type PRC2/EZH2 stood at 3650 nM.

Consider `COc1cc(C)[nH]c(=O)c1CN1CCn2ccc3cc(C(OC)C4COC4)c(C)c(c32)C1=O` (stereo not shown) [Compound 14, 9-(methoxy(oxetan-3-yl)methyl)-2-((4-methoxy-6-methyl-2-oxo-1,2-dihydropyridin-3-yl)methyl)-10-methyl-3,4-dihydro-[1,4]diazepino[6,7,1-HI]indol-1(2H)-one], for which the results for the IC50 at Wild-type PRC2/EZH2, in the experiment on WSUDLCL-2 cells and in the experiment on Karpas422 cells were 11.8 nM, 4.8 nM and 28.7 nM, respectively.

Turning to `COc1cc(C)[nH]c(=O)c1CN1CCn2ccc3cc(-c4c(C)noc4C)c(Cl)c(c32)C1=O` [Compound 1, 10-chloro-9-(3,5-dimethylisoxazol-4-yl)-2-((4-methoxy-6-methyl-2-oxo-1,2-dihydropyridin-3-yl)methyl)-3,4-dihydro-[1,4]diazepino[6,7,1-HI]indol-1(2H)-one], the results for the IC50 in the experiment with WSUDLCL-2 cells and with Karpas422 cells were 3.8 nM and 52 nM, respectively.

Regarding `COc1cc(C)[nH]c(=O)c1CN1CC(C)n2ccc3cc(-c4c(C)noc4C)c(Cl)c(c32)C1=O` (stereo not shown) [Compound 16, 10-chloro-9-(3,5-dimethylisoxazol-4-yl)-2-((4-methoxy-6-methyl-2-oxo-1,2-dihydropyridin-3-yl)methyl)-4-methyl-3,4-dihydro-[1,4]diazepino[6,7,1-HI]indol-1(2H)-one], the values for the IC50 in the experiment on WSUDLCL-2 cells and with Karpas422 cells were 4.6 nM and 158 nM, respectively.

In the case of `COc1cc(C)[nH]c(=O)c1CN1CCn2cc(Cl)c3cc(-c4c(C)cnn4C)c(Cl)c(c32)C1=O` [Compound 6, 7,10-dichloro-9-(1,4-dimethyl-1H-pyrazol-5-yl)-2-((4-methoxy-6-methyl-2-oxo-1,2-dihydropyridin-3-yl)methyl)-3,4-dihydro-[1,4]diazepino[6,7,1-HI]indol-1(2H)-one], at Wild-type PRC2/EZH2, the IC50 came out at 1120 nM.
